Assay: molar heat capacity at constant pressure
Conditions: 101.33 kPa

CCCCc1ccc(C(=O)Oc2ccc(C#N)c(F)c2)cc1 [4-cyano-3-fluorophenyl 4-butylbenzoate]
Conditions | molar heat capacity at constant pressure [J/K/mol]
221.07 K, Crystal 2, Small (less than 1 g) adiabatic calorimetry | 311.55
221.65 K, Crystal 1, Small (less than 1 g) adiabatic calorimetry | 297.64
222.84 K, Crystal 1, Small (less than 1 g) adiabatic calorimetry | 299.23
223.8 K, Crystal 2, Small (less than 1 g) adiabatic calorimetry | 314.36
223.83 K, Crystal 1, Small (less than 1 g) adiabatic calorimetry | 300.59
224.03 K, Crystal 1, Small (less than 1 g) adiabatic calorimetry | 300.76
225.22 K, Crystal 1, Small (less than 1 g) adiabatic calorimetry | 302.28
226.41 K, Crystal 1, Small (less than 1 g) adiabatic calorimetry | 303.96
226.54 K, Crystal 2, Small (less than 1 g) adiabatic calorimetry | 317.16
226.65 K, Crystal 1, Small (less than 1 g) adiabatic calorimetry | 304.49
227.59 K, Crystal 1, Small (less than 1 g) adiabatic calorimetry | 305.68
228.77 K, Crystal 1, Small (less than 1 g) adiabatic calorimetry | 307.52
229.29 K, Crystal 2, Small (less than 1 g) adiabatic calorimetry | 320.04
229.47 K, Crystal 1, Small (less than 1 g) adiabatic calorimetry | 308.62
229.94 K, Crystal 1, Small (less than 1 g) adiabatic calorimetry | 309.12
230 K, Crystal 1, Vacuum adiabatic calorimetry | 309.39
230 K, Crystal 2, Vacuum adiabatic calorimetry | 320.68
231.12 K, Crystal 1, Small (less than 1 g) adiabatic calorimetry | 310.59
232.06 K, Crystal 2, Small (less than 1 g) adiabatic calorimetry | 322.55
232.28 K, Crystal 1, Small (less than 1 g) adiabatic calorimetry | 312.29
232.3 K, Crystal 1, Small (less than 1 g) adiabatic calorimetry | 312.7
233.45 K, Crystal 1, Small (less than 1 g) adiabatic calorimetry | 313.85
234.61 K, Crystal 1, Small (less than 1 g) adiabatic calorimetry | 315.48
234.84 K, Crystal 2, Small (less than 1 g) adiabatic calorimetry | 325.57
235.14 K, Crystal 1, Small (less than 1 g) adiabatic calorimetry | 316.89
235.77 K, Crystal 1, Small (less than 1 g) adiabatic calorimetry | 317.02
236.93 K, Crystal 1, Small (less than 1 g) adiabatic calorimetry | 318.75
237.63 K, Crystal 2, Small (less than 1 g) adiabatic calorimetry | 328.79
238.05 K, Crystal 1, Small (less than 1 g) adiabatic calorimetry | 321.4
238.08 K, Crystal 1, Small (less than 1 g) adiabatic calorimetry | 320.42
239.23 K, Crystal 1, Small (less than 1 g) adiabatic calorimetry | 322.04
240 K, Crystal 1, Vacuum adiabatic calorimetry | 324.53
240 K, Crystal 2, Vacuum adiabatic calorimetry | 332.29
240.38 K, Crystal 1, Small (less than 1 g) adiabatic calorimetry | 323.67
240.43 K, Crystal 2, Small (less than 1 g) adiabatic calorimetry | 332.92
241.04 K, Crystal 1, Small (less than 1 g) adiabatic calorimetry | 326.21
241.52 K, Crystal 1, Small (less than 1 g) adiabatic calorimetry | 325.48
242.66 K, Crystal 1, Small (less than 1 g) adiabatic calorimetry | 327.48
243.24 K, Crystal 2, Small (less than 1 g) adiabatic calorimetry | 336.05
243.8 K, Crystal 1, Small (less than 1 g) adiabatic calorimetry | 328.63
244.07 K, Crystal 1, Small (less than 1 g) adiabatic calorimetry | 330.21
246.07 K, Crystal 1, Small (less than 1 g) adiabatic calorimetry | 331.47
247.13 K, Crystal 1, Small (less than 1 g) adiabatic calorimetry | 334.86
247.2 K, Crystal 1, Small (less than 1 g) adiabatic calorimetry | 333.06
248.33 K, Crystal 1, Small (less than 1 g) adiabatic calorimetry | 334.82
249.45 K, Crystal 1, Small (less than 1 g) adiabatic calorimetry | 336.63
250 K, Crystal 1, Vacuum adiabatic calorimetry | 339.52
250.22 K, Crystal 1, Small (less than 1 g) adiabatic calorimetry | 339.88
250.57 K, Crystal 1, Small (less than 1 g) adiabatic calorimetry | 338.23
251.69 K, Crystal 1, Small (less than 1 g) adiabatic calorimetry | 339.75
252.81 K, Crystal 1, Small (less than 1 g) adiabatic calorimetry | 341.78
253.35 K, Crystal 1, Small (less than 1 g) adiabatic calorimetry | 344.81
253.92 K, Crystal 1, Small (less than 1 g) adiabatic calorimetry | 343.44
255.03 K, Crystal 1, Small (less than 1 g) adiabatic calorimetry | 345.42
256.14 K, Crystal 1, Small (less than 1 g) adiabatic calorimetry | 347.42
256.51 K, Crystal 1, Small (less than 1 g) adiabatic calorimetry | 349.77
257.24 K, Crystal 1, Small (less than 1 g) adiabatic calorimetry | 349.12
258.34 K, Crystal 1, Small (less than 1 g) adiabatic calorimetry | 350.75
259.44 K, Crystal 1, Small (less than 1 g) adiabatic calorimetry | 352.9
259.7 K, Crystal 1, Small (less than 1 g) adiabatic calorimetry | 354.86
260 K, Crystal 1, Vacuum adiabatic calorimetry | 355.31
260.54 K, Crystal 1, Small (less than 1 g) adiabatic calorimetry | 354.79
261.63 K, Crystal 1, Small (less than 1 g) adiabatic calorimetry | 356.59
262.72 K, Crystal 1, Small (less than 1 g) adiabatic calorimetry | 358.59
262.92 K, Crystal 1, Small (less than 1 g) adiabatic calorimetry | 359.67
263.8 K, Crystal 1, Small (less than 1 g) adiabatic calorimetry | 360.46
264.89 K, Crystal 1, Small (less than 1 g) adiabatic calorimetry | 362.63

— the NIST ThermoML archive (doi:10.1016/j.jct.2012.03.031)
